Assay: Solubility of the salts in different solvents at different temperature (basis for the separation)
Text: The principle to separate the two salts is the solubility in different solvents at different temperature.

Structure (SMILES) | Solubility in acetone (Room Temperature) | Solubility in hexane (Room Temperature) | Solubility in toluene (100 C.) | Solubility in toluene (Room Temperature) | Solubility in water (Room Temperature)
Br.CCN(C(C)C)C(C)C [i-Pr2NEt—HBr] | soluble | not soluble | soluble | not soluble | very soluble
Cc1cc(C)c(N2C=[N+](c3c(C)cc(C)cc3C)CC2)c(C)c1.[Br-] [sIMes-HBr, 1,3-Dimesitylimidazolinium Bromide] | slightly soluble | not soluble |  | not soluble | slightly soluble
